Reference: patent US8889671B2, “Compounds and methods for treating bacterial infections” (AstraZeneca AB, priority 2013, dated 2014)
pIC50: −log10 of the molar value. In brackets after ≈: the same amount, converted by molar mass. Read-outs that look alike come from different tables or passages of the source.

Columns and labels:
Staphylococcus aureus = experiment: Susceptibility testing (MIC) Assay 1, broth microdilution; type: cell-based; conditions: Staphylococcus aureus
Streptococcus pneumoniae = experiment: as above; type: cell-based
Streptococcus pyogenes = experiment: as above; type: cell-based; conditions: Streptococcus pyogenes, Streptococcus pyrgenes, in vivo strain; read-out: Spy MIC
Escherichia coli = experiment: Susceptibility testing (MIC) Assay 2, broth microdilution; type: cell-based; conditions: K12, read-out: Eco MIC
Haemophilus influenzae = experiment: as above; type: cell-based; conditions: ATCC51907, Haemophilus influenzae, ATCC 51907, in vivo strain, read-out: Hin MIC
Klebsiella pneumoniae = experiment: as above; type: cell-based; conditions: clinical isolate, mucoid, read-out: Kpn MIC
Pseudomonas aeruginosa = experiment: as above; type: cell-based; conditions: PAO1, read-out: Pae MIC
[1] = biological target: Escherichia coli DNA gyrase A/B tetramer (Escherichia coli (strain K12), UniProt P0AES4+P0AES6); experiment: DNA gyrase supercoiling activity fluorescence polarisation assay; type: biochemical; conditions: Eco Gyr FP Mean IC50, E. coli DNA gyrase supercoiling, 0.3 mM ATP
How it was run: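 IC50 derived by nonlinear regression from BODIPY-FL fluorescence anisotropy, read 60 min after quenching with labelled triplex-forming probe (pH 3.5). Reaction: 5 nM gyrase tetramer, 130 micrograms/mL relaxed plasmid, 0.3 mM ATP, 4 mM MgCl2, pH 7.5, typically 30 min at ambient temperature, 5-10 compound concentrations.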

[2] = Staphylococcus aureus in vivo strain, MSQS, read-out: Sau(d) MIC
[3] = in vivo strain, MRQR, read-out: Sau(e) MIC
[4] = in vivo strain (footnote b), read-out: Spn(b) MIC
[5] = in vivo strain (footnote c), read-out: Spn(c) MIC

| SMILES | MIC (Staphylococcus aureus; [2]) | MIC (Staphylococcus aureus; [3]) | MIC (Staphylococcus aureus; serum, read-out: Sau(f) MIC) | MIC (Streptococcus pneumoniae; [4]) | MIC (Streptococcus pneumoniae; [5]) | MIC (Streptococcus pyogenes) | MIC (Escherichia coli) | MIC (Haemophilus influenzae) | MIC (Klebsiella pneumoniae) | MIC (Pseudomonas aeruginosa) | pIC50 [1] |
| --- | --- | --- | --- | --- | --- | --- | --- | --- | --- | --- | --- |
| C[C@@H]1CN2c3c(cc4c(N5C(=O)OC[C@@H]5c5ccncc5)noc4c3F)CC3(C(=O)NC(=O)NC3=O)[C@H]2[C@H](C)O1 [Example 58, (2R,4S,4aS)-11-fluoro-2,4-dimethyl-8-((S)-2-oxo-4-(pyridin-4-yl)oxazolidin-3-yl)-2,4,4a,6-tetrahydro-1H,1′H-spiro[isoxazolo[4,5-g][1,4]oxazino[4,3-a]quinoline-5,5′-pyrimidine]-2′,4′,6′(3′H)-trione] | 12 µM (≈ 6.61 µg/mL) | 50 µM (≈ 27.5 µg/mL) | 50 µM (≈ 27.5 µg/mL) | 50 µM (≈ 27.5 µg/mL) | 25 µM (≈ 13.8 µg/mL) | 12 µM (≈ 6.61 µg/mL) | > 200 µM | 6.2 µM (≈ 3.41 µg/mL) | > 200 µM | > 200 µM | 5.82 |
| CO[C@H](C)[C@H]1COC(=O)N1c1noc2c(F)c3c(cc12)CC1(C(=O)NC(=O)NC1=O)[C@H]1[C@H](C)O[C@H](C)CN31 [Example 59] | 0.78 µM (≈ 0.415 µg/mL) | 1.6 µM (≈ 0.85 µg/mL) | 3.1 µM (≈ 1.65 µg/mL) | 1.6 µM (≈ 0.85 µg/mL) | 1.6 µM (≈ 0.85 µg/mL) | 1.6 µM (≈ 0.85 µg/mL) | 100 µM (≈ 53.1 µg/mL) | 1.6 µM (≈ 0.85 µg/mL) | > 200 µM | > 200 µM | 6.07 |
| CO[C@@H](C)[C@@H]1COC(=O)N1c1noc2c(F)c3c(cc12)CC1(C(=O)NC(=O)NC1=O)[C@H]1[C@H](C)O[C@H](C)CN31 [Example 60] | 0.78 µM (≈ 0.415 µg/mL) | 1.6 µM (≈ 0.85 µg/mL) | 1.6 µM (≈ 0.85 µg/mL) | 1.6 µM (≈ 0.85 µg/mL) | 1.6 µM (≈ 0.85 µg/mL) | 1.6 µM (≈ 0.85 µg/mL) | 100 µM (≈ 53.1 µg/mL) | 1.6 µM (≈ 0.85 µg/mL) | > 200 µM | > 200 µM | 6.02 |
| C[C@@H]1CN2c3c(cc4c(N5C(=O)OC[C@H]5c5cnccn5)noc4c3F)CC3(C(=O)NC(=O)NC3=O)[C@H]2[C@H](C)O1 [Example 61, (2R,4S,4aS)-11-Fluoro-2,4-dimethyl-8-((R)-2-oxo-4-(pyrazin-2-yl)oxazolidin-3-yl)-2,4,4a,6-tetrahydro-1H,1′H-spiro[isoxazolo[4,5-g][1,4]oxazino[4,3-a]quinoline-5,5′-pyrimidine]-2′,4′,6′(3′H)-trione] | 0.78 µM (≈ 0.43 µg/mL) | 3.1 µM (≈ 1.71 µg/mL) | 1.6 µM (≈ 0.882 µg/mL) | 0.78 µM (≈ 0.43 µg/mL) | 0.78 µM (≈ 0.43 µg/mL) | 0.78 µM (≈ 0.43 µg/mL) | 100 µM (≈ 55.1 µg/mL) | < 0.2 µM | > 200 µM | > 200 µM | 6.47 |
| C[C@@H]1CN2c3c(cc4c(N5C(=O)OC[C@@H]5c5cnccn5)noc4c3F)CC3(C(=O)NC(=O)NC3=O)[C@H]2[C@H](C)O1 [Example 62, (2R,4S,4aS)-11-fluoro-2,4-dimethyl-8-((S)-2-oxo-4-(pyrazin-2-yl)oxazolidin-3-yl)-2,4,4a,6-tetrahydro-1H,1′H-spiro[isoxazolo[4,5-g][1,4]oxazino[4,3-a]quinoline-5,5′-pyrimidine]-2′,4′,6′(3′H)-trione] | 3.1 µM (≈ 1.71 µg/mL) | 6.2 µM (≈ 3.42 µg/mL) | 6.2 µM (≈ 3.42 µg/mL) | 6.2 µM (≈ 3.42 µg/mL) | 3.1 µM (≈ 1.71 µg/mL) | 3.1 µM (≈ 1.71 µg/mL) | > 200 µM | 3.1 µM (≈ 1.71 µg/mL) | > 200 µM | > 200 µM | 5.85 |
| C[C@@H]1CN2c3c(cc4c(N5C(=O)OC[C@H]5c5ncccn5)noc4c3F)CC3(C(=O)NC(=O)NC3=O)[C@H]2[C@H](C)O1 [Example 63, (2R,4S,4aS)-11-Fluoro-2,4-dimethyl-8-((R)-2-oxo-4-(pyrimidin-2-yl)oxazolidin-3-yl)-2,4,4a,6-tetrahydro-1H,1′H-spiro[isoxazolo[4,5-g][1,4]oxazino[4,3-a]quinoline-5,5′-pyrimidine]-2′,4′,6′(3′H)-trione] | 0.78 µM (≈ 0.43 µg/mL) | 3.1 µM (≈ 1.71 µg/mL) | > 200 µM | 0.39 µM (≈ 0.215 µg/mL) | 0.39 µM (≈ 0.215 µg/mL) | 0.39 µM (≈ 0.215 µg/mL) | 100 µM (≈ 55.1 µg/mL) | 0.39 µM (≈ 0.215 µg/mL) | > 200 µM | > 200 µM | 6.42 |
| C[C@@H]1CN2c3c(cc4c(N5C(=O)OC[C@@H]5c5ncccn5)noc4c3F)CC3(C(=O)NC(=O)NC3=O)[C@H]2[C@H](C)O1 [Example 64, (2R,4S,4aS)-11-fluoro-2,4-dimethyl-8-((S)-2-oxo-4-(pyrimidin-2-yl)oxazolidin-3-yl)-2,4,4a,6-tetrahydro-1H,1′H-spiro[isoxazolo[4,5-g][1,4]oxazino[4,3-a]quinoline-5,5′-pyrimidine]-2′,4′,6′(3′H)-trione] | 6.2 µM (≈ 3.42 µg/mL) | 25 µM (≈ 13.8 µg/mL) | 25 µM (≈ 13.8 µg/mL) | 12 µM (≈ 6.62 µg/mL) | 6.2 µM (≈ 3.42 µg/mL) | 6.2 µM (≈ 3.42 µg/mL) | > 200 µM | 3.1 µM (≈ 1.71 µg/mL) | > 200 µM | > 200 µM | < 5.68 |
| C#C[C@H]1COC(=O)N1c1noc2c(F)c3c(cc12)CC1(C(=O)NC(=O)NC1=O)[C@H]1[C@H](C)O[C@H](C)CN31 [Example 65] | 0.39 µM (≈ 0.194 µg/mL) | 1.6 µM (≈ 0.796 µg/mL) | 1.6 µM (≈ 0.796 µg/mL) | 0.78 µM (≈ 0.388 µg/mL) | 1.6 µM (≈ 0.796 µg/mL) | 0.78 µM (≈ 0.388 µg/mL) | 3.1 µM (≈ 1.54 µg/mL) | 0.78 µM (≈ 0.388 µg/mL) | 200 µM (≈ 99.5 µg/mL) | > 200 µM | 6.92 |
| C[C@@H]1CN2c3c(cc4c(N5C(=O)OC[C@@H]5C)noc4c3Cl)CC3(C(=O)NC(=O)NC3=O)[C@H]2[C@H](C)O1 [Example 66, (2R,4S,4aS)-11-Chloro-2,4-dimethyl-8-((S)-4-methyl-2-oxooxazolidin-3-yl)-2,4,4a,6-tetrahydro-1H, 1′H-spiro[isoxazolo[4,5-g][1,4]oxazino[4,3-a]quinoline-5,5′-pyrimidine]-2′,4′,6′(3′H)-trione] | 0.39 µM (≈ 0.197 µg/mL) | 0.78 µM (≈ 0.393 µg/mL) | 0.78 µM (≈ 0.393 µg/mL) | 0.39 µM (≈ 0.197 µg/mL) | 0.78 µM (≈ 0.393 µg/mL) | 0.39 µM (≈ 0.197 µg/mL) | 6.2 µM (≈ 3.12 µg/mL) | 0.78 µM (≈ 0.393 µg/mL) | 100 µM (≈ 50.4 µg/mL) | > 200 µM | 6.77 |
| C[C@@H]1CN2c3c(cc4c(N5C(=O)OC[C@@H]5c5ncnn5C)noc4c3F)CC3(C(=O)NC(=O)NC3=O)[C@H]2[C@H](C)O1 [Example 68, (2R,4S,4aS)-11-Fluoro-2,4-dimethyl-8-((S)-4-(1-methyl-1H-1,2,4-triazol-5-yl)-2-oxooxazolidin-3-yl)-2,4,4a,6-tetrahydro-1H,1′H-spiro[isoxazolo[4,5-g][1,4]oxazino[4,3-a]quinoline-5,5′-pyrimidine]-2′,4′,6′(3′H)-trione] | 12 µM (≈ 6.65 µg/mL) | 25 µM (≈ 13.9 µg/mL) | 12 µM (≈ 6.65 µg/mL) | 3.1 µM (≈ 1.72 µg/mL) | 6.2 µM (≈ 3.44 µg/mL) | 3.1 µM (≈ 1.72 µg/mL) | 200 µM (≈ 111 µg/mL) | 1.6 µM (≈ 0.887 µg/mL) | > 200 µM | > 200 µM | 6.66 |
| C[C@@H]1CN2c3c(cc4c(N5C(=O)OC[C@H]5c5ncnn5C)noc4c3F)CC3(C(=O)NC(=O)NC3=O)[C@H]2[C@H](C)O1 [Example 69, (2R,4S,4aS)-11-Fluoro-2,4-dimethyl-8-((R)-4-(1-methyl-1H-1,2,4-triazol-5-yl)-2-oxooxazolidin-3-yl)-2,4,4a,6-tetrahydro-1H,1′H-spiro[isoxazolo[4,5-g][1,4]oxazino[4,3-a]quinoline-5,5′-pyrimidine]-2′,4′,6′(3′H)-trione] | 12 µM (≈ 6.65 µg/mL) | 25 µM (≈ 13.9 µg/mL) | 12 µM (≈ 6.65 µg/mL) | 12 µM (≈ 6.65 µg/mL) | 12 µM (≈ 6.65 µg/mL) | 3.1 µM (≈ 1.72 µg/mL) | > 200 µM | 3.1 µM (≈ 1.72 µg/mL) | > 200 µM | > 200 µM | 6.22 |
| C[C@@H]1CN2c3c(cc4c(N5C(=O)OC[C@@H]5[C@H](C)O)noc4c3F)CC3(C(=O)NC(=O)NC3=O)[C@H]2[C@H](C)O1 [Example 70] | 12 µM (≈ 6.21 µg/mL) | 50 µM (≈ 25.9 µg/mL) | 25 µM (≈ 12.9 µg/mL) | 1.6 µM (≈ 0.828 µg/mL) | 3.1 µM (≈ 1.6 µg/mL) | 1.6 µM (≈ 0.828 µg/mL) | 200 µM (≈ 103 µg/mL) | 1.6 µM (≈ 0.828 µg/mL) | > 200 µM | > 200 µM | 6.21 |
| C[C@@H]1CN2c3c(cc4c(N5C(=O)OC[C@@H]5CC#N)noc4c3F)CC3(C(=O)NC(=O)NC3=O)[C@H]2[C@H](C)O1 [Example 71, {(4S)-3-[(2R,4S,4aS)-11-Fluoro-2,4-dimethyl-2′,4′,6′-trioxo-1,1′,2,3′,4,4′,4a,6′-octahydro-2′H,6H-spiro[1,4-oxazino[4,3-a][1,2]oxazolo[4,5-g]quinoline-5,5′-pyrimidin]-8-yl]-2-oxo-1,3-oxazolidin-4-yl}acetonitrile] | 3.1 µM (≈ 1.59 µg/mL) | 6.2 µM (≈ 3.18 µg/mL) | 3.1 µM (≈ 1.59 µg/mL) | 1.6 µM (≈ 0.82 µg/mL) | 1.6 µM (≈ 0.82 µg/mL) | 1.6 µM (≈ 0.82 µg/mL) | 50 µM (≈ 25.6 µg/mL) | 1.6 µM (≈ 0.82 µg/mL) | > 200 µM | > 200 µM | 6.80 |
| C[C@@H]1CN2c3c(cc4c(N5C(=O)OC[C@@H]5[C@@H](O)CO)noc4c3F)CC3(C(=O)NC(=O)NC3=O)[C@H]2[C@H](C)O1 [Example 72] | 25 µM (≈ 13.3 µg/mL) | 50 µM (≈ 26.7 µg/mL) | 25 µM (≈ 13.3 µg/mL) | 0.78 µM (≈ 0.416 µg/mL) | 3.1 µM (≈ 1.65 µg/mL) | 0.39 µM (≈ 0.208 µg/mL) | > 200 µM | 3.1 µM (≈ 1.65 µg/mL) | > 200 µM | > 200 µM | 6.54 |
| C[C@@H]1CN2c3c(cc4c(N5C(=O)OC[C@@H]5[C@H](O)CO)noc4c3F)CC3(C(=O)NC(=O)NC3=O)[C@H]2[C@H](C)O1 [Example 73] | 25 µM (≈ 13.3 µg/mL) | 100 µM (≈ 53.3 µg/mL) | 25 µM (≈ 13.3 µg/mL) | 0.78 µM (≈ 0.416 µg/mL) | 3.1 µM (≈ 1.65 µg/mL) | 0.78 µM (≈ 0.416 µg/mL) | > 200 µM | 6.2 µM (≈ 3.31 µg/mL) | > 200 µM | > 200 µM | 6.47 |
